Measured values: patent US12440484B2, “1,3,4-oxadiazole homophthalimide derivative compounds as histone deacetylase 6 inhibitor, and the pharmaceutical composition comprising the same” (Chong Kun Dang Pharmaceutical Corp., priority 2019, dated 2025)
pIC50: −log10 of the molar value.

Assays:
HDAC1 = HDAC1 (Homo sapiens (Human), UniProt Q13547); assay: HDAC enzyme activity inhibition (in vitro), HDAC1 Fluorimetric Drug Discovery Assay Kit; assay type: biochemical; details: samples at 100, 1000 and 10000 nM; 37° C. 60 minutes; fluorescence Ex 390, Em 460
HDAC6 human recombinant = HDAC6 human recombinant (Homo sapiens (Human), UniProt Q9UBN7); assay: HDAC enzyme activity inhibition (in vitro), HDAC6 assay; assay type: biochemical; details: samples at 0.1, 1, 10, 100 and 1000 nM; 37° C. 60 minutes; fluorescence Ex 390, Em 460
Chain of HDAC6 human recombinant (Q9UBN7 whole entry): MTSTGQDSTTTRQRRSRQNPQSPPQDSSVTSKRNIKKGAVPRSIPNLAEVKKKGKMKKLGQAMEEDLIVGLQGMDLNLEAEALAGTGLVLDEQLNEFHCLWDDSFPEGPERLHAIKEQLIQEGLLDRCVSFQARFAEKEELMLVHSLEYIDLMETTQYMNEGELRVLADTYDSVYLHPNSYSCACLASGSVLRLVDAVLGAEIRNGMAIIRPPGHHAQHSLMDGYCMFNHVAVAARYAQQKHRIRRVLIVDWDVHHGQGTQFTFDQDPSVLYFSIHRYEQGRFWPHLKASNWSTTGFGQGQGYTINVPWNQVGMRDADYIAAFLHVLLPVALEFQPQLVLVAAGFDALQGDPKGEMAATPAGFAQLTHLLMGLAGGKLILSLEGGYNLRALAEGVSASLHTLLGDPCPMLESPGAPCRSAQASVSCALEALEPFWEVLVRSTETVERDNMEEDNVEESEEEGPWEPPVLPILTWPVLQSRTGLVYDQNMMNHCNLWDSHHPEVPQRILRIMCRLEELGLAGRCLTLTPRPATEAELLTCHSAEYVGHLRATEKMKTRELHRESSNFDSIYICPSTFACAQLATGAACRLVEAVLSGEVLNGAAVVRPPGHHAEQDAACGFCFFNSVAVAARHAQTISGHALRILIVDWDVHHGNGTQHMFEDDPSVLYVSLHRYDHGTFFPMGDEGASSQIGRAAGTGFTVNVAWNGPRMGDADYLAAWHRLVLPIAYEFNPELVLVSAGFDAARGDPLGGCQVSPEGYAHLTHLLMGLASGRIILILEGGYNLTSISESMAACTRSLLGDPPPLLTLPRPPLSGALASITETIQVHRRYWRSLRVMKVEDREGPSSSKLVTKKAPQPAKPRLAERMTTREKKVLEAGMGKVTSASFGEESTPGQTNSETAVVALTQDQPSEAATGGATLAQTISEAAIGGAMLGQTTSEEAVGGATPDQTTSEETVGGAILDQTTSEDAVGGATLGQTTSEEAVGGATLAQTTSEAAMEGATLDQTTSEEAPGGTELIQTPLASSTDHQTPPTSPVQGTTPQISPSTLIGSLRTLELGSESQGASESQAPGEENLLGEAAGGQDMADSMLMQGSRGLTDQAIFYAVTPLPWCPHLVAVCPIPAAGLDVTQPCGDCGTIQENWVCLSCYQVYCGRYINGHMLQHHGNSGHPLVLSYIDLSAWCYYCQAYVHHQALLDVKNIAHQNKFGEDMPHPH

Chain of HDAC1 (Q13547 whole entry): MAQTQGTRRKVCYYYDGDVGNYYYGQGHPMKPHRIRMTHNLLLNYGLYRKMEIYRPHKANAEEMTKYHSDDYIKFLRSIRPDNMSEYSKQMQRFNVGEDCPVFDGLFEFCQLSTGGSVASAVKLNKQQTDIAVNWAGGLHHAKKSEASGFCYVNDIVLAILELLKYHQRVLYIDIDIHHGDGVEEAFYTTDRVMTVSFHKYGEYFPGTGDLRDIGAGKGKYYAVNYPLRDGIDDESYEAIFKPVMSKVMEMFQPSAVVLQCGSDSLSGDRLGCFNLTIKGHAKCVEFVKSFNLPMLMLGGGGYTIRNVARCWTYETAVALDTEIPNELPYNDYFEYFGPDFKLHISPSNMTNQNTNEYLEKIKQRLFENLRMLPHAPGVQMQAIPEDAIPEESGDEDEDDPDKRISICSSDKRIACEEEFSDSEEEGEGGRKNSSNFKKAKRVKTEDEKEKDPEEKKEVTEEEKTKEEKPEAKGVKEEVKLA

SMILES | pIC50 (HDAC1) | pIC50 (HDAC6 human recombinant)
COc1ccc(-c2cccc3c2C(=O)N(Cc2ccc(-c4nnc(C(F)F)o4)cn2)C(=O)C3(C)C)cn1 [Compound 94, 2-((5-(5-(difluoromethyl)-1,3,4-oxadiazole-2-yl)pyridine-2-yl)methyl)-8-(6-methoxypyridine-3-yl)-4,4-dimethylisoquinoline-1,3(2H,4H)-dione] | < 5.00 | 6.94
Cc1ccc(-c2ccc3c(c2)C(=O)N(Cc2ccc(-c4nnc(C(F)F)o4)cn2)C(=O)C3(C)C)o1 [Compound 114, 2-((5-(5-(difluoromethyl)-1,3,4-oxadiazole-2-yl)pyridine-2-yl)methyl)-4,4-dimethyl-7-(5-methylfuran-2-yl)isoquinoline-1,3(2H,4H)-dione] | < 5.00 | 7.11
CC1(C)C(=O)N(Cc2ccc(-c3nnc(C(F)F)o3)cn2)C(=O)c2c(-c3ccco3)cccc21 [Compound 82, 2-((5-(5-(difluoromethyl)-1,3,4-oxadiazole-2-yl)pyridine-2-yl)methyl)-8-(furan-2-yl)-4,4-dimethylisoquinoline-1,3(2H,4H)-dione] | < 5.00 | 7.04
Cn1c(=O)n(Cc2ccc(-c3nnc(C(F)F)o3)cn2)c(=O)c2cc(-c3cccc(F)c3)ccc21 [Compound 90, 3-((5-(5-(difluoromethyl)-1,3,4-oxadiazole-2-yl)pyridine-2-yl)methyl)-6-(3-fluorophenyl)-1-methylquinazoline-2,4(1H,3H)-dione] | < 5.00 | 7.39
CC1(C)C(=O)N(Cc2ccc(-c3nnc(C(F)F)o3)cn2)C(=O)c2cc(C3=CCSCC3)ccc21 [Compound 121, 2-((5-(5-(difluoromethyl)-1,3,4-oxadiazole-2-yl)pyridine-2-yl)methyl)-7-(3,6-dihydro-2H-thiopyran-4-yl)-4,4-dimethylisoquinoline-1,3(2H,4H)-dione] | < 5.00 | 7.44
CC1(C)C(=O)N(Cc2ccc(-c3nnc(C(F)F)o3)cn2)C(=O)c2c(N3CCOCC3)cccc21 [Compound 83, 2-((5-(5-(difluoromethyl)-1,3,4-oxadiazole-2-yl)pyridine-2-yl)methyl)-4,4-dimethyl-8-morpholinoisoquinoline-1,3(2H,4H)-dione] | < 5.00 | 7.01
CC(C)(C)OC(=O)N1CCN(c2ccc3c(c2)C(C)(C)C(=O)N(Cc2ccc(-c4nnc(C(F)F)o4)cn2)C3=O)CC12CC2 [Compound 79, tert-butyl 7-(2-((5-(5-(difluoromethyl)-1,3,4-oxadiazole-2-yl)pyridine-2-yl)methyl)-4,4-dimethyl-1,3-dioxo-1,2,3,4-tetrahydroisoquinoline-6-yl)-4,7-diazaspiro[2.5]octane-4-carboxylate] | < 5.00 | 6.95
CC1(C)C(=O)N(Cc2ccc(-c3nnc(C(F)F)o3)cn2)C(=O)c2cc(Br)ccc21 [Compound 51, 7-bromo-2-((5-(5-(difluoromethyl)-1,3,4-oxadiazole-2-yl)pyridine-2-yl)methyl)-4,4-dimethylisoquinoline-1,3(2H,4H)-dione] | < 5.00 | 7.42
CCCN1CCN(c2ccc3c(c2)C(C)(C)C(=O)N(Cc2ccc(-c4nnc(C(F)F)o4)cn2)C3=O)CC1 [Compound 148] | < 5.00 | 7.49
CC1(C)C(=O)N(Cc2ccc(-c3nnc(C(F)F)o3)cn2)C(=O)c2ccc(C3=CCN(C4COC4)CC3)cc21 [Compound 43, 2-((5-(5-(difluoromethyl)-1,3,4-oxadiazole-2-yl)pyridine-2-yl)methyl)-4,4-dimethyl-6-(1-(oxetan-3-yl)-1,2,3,6-tetrahydropyridine-4-yl)isoquinoline-1,3(2H,4H)-dione] | < 5.00 | 7.42
Cn1c(=O)n(Cc2ccc(-c3nnc(C(F)F)o3)cn2)c(=O)c2cc(F)ccc21 [Compound 70, 3-((5-(5-(difluoromethyl)-1,3,4-oxadiazole-2-yl)pyridine-2-yl)methyl)-6-fluoro-1-methylquinazoline-2,4(1H,3H)-dione] | < 5.00 | 7.23
CC1(C)C(=O)N(Cc2ncc(-c3nnc(C(F)F)o3)cn2)C(=O)c2ccccc21 [Compound 12, 2-((5-(5-(difluoromethyl)-1,3,4-oxadiazole-2-yl)pyrimidine-2-yl)methyl)-4,4-dimethylisoquinoline-1,3(2H,4H)-dione] | < 5.00 | 7.08
CC1(C)C(=O)N(Cc2ccc(-c3nnc(C(F)F)o3)cn2)C(=O)c2ccc(N3CC(F)(F)C3)cc21 [Compound 49, 6-(3,3-difluoroazetidine-1-yl)-2-((5-(5-(difluoromethyl)-1,3,4-oxadiazole-2-yl)pyridine-2-yl)methyl)-4,4-dimethylisoquinoline-1,3(2H,4H)-dione] | < 5.00 | 7.39
O=c1[nH]c2ccccc2c(=O)n1Cc1ccc(-c2nnc(C(F)F)o2)cn1 [Compound 14, 3-((5-(5-(difluoromethyl)-1,3,4-oxadiazole-2-yl)pyridine-2-yl)methyl)quinazoline-2,4(1H,3H)-dione] | < 5.00 | 7.28
CC1(C)C(=O)N(Cc2ccc(-c3nnc(C(F)F)o3)cn2)C(=O)c2cc(N3CCOCC3)ccc21 [Compound 52, 2-((5-(5-(difluoromethyl)-1,3,4-oxadiazole-2-yl)pyridine-2-yl)methyl)-4,4-dimethyl-7-morpholinoisoquinoline-1,3(2H,4H)-dione] | < 5.00 | 7.40
CC(=O)N1CCC(c2ccc3c(c2)C(=O)N(Cc2ccc(-c4nnc(C(F)F)o4)cn2)C(=O)C3(C)C)CC1 [Compound 127, 7-(1-acetylpiperidine-4-yl)-2-((5-(5-(difluoromethyl)-1,3,4-oxadiazole-2-yl)pyridine-2-yl)methyl)-4,4-dimethylisoquinoline-1,3(2H,4H)-dione] | < 5.00 | 7.77
O=c1c2cc(F)ccc2n(CCN2CCCCC2)c(=O)n1Cc1ccc(-c2nnc(C(F)F)o2)cn1 [Compound 71, 3-((5-(5-(difluoromethyl)-1,3,4-oxadiazole-2-yl)pyridine-2-yl)methyl)-6-fluoro-1-(2-(piperidine-1-yl)ethyl)quinazoline-2,4(1H,3H)-dione] | < 5.00 | 6.82
CC1(C)C(=O)N(Cc2ccc(-c3nnc(C(F)F)o3)cn2)C(=O)c2ccc(N3CCN(CC(F)(F)C(F)(F)C(F)(F)F)CC3)cc21 [Compound 140, 2-((5-(5-(difluoromethyl)-1,3,4-oxadiazole-2-yl)pyridine-2-yl)methyl)-6-(4-(2,2,3,3,4,4,4-heptafluorobutyl)piperazine-1-yl)-4,4-dimethylisoquinoline-1,3(2H,4H)-dione] | < 5.00 | 6.27
CC(F)(F)CN1CCN(c2ccc3c(c2)C(C)(C)C(=O)N(Cc2ccc(-c4nnc(C(F)F)o4)cn2)C3=O)CC1 [Compound 138, 2-((5-(5-(difluoromethyl)-1,3,4-oxadiazole-2-yl)pyridine-2-yl)methyl)-6-(4-(2,2-difluoropropyl)piperazine-1-yl)-4,4-dimethylisoquinoline-1,3(2H,4H)-dione] | < 5.00 | 7.02
Cn1c(=O)n(Cc2ccc(-c3nnc(C(F)F)o3)cn2)c(=O)c2cc(-c3ccncc3)ccc21 [Compound 92, 3-((5-(5-(difluoromethyl)-1,3,4-oxadiazole-2-yl)pyridine-2-yl)methyl)-1-methyl-6-(pyridine-4-yl)quinazoline-2,4(1H,3H)-dione] | < 5.00 | 7.46
